Measurements as given in US20240382507A1, “PHARMACEUTICAL COMPOSITIONS COMPRISING 2,3,4,5- TETRAHYDROBENZOTHIEPIN- 1,1-DIOXIDE DERIVATIVES AND THE USE THEREOF” (Mirum Pharmaceuticals, Inc., priority 2023, published 2024).
Structures can show the parent of a compound that is named as a salt.

Tests used:
[1] = Excipient compatibility: potency and purity of binary volixibat:excipient formulations on storage (HPLC); format: physicochemical
Description: Binary formulations of volixibat potassium were prepared at either 1:1 or 10:1 ratio with the excipients outlined in Table 1.1. Powder grade excipients were utilized to maximize surface area interactions between excipient and drug substance.
Each formulation was prepared at 300 mg total sample size. Volixibat and each excipient was weighed into glass vials and mixed via vortex. A single vial of each formulation was stored loosely capped at two storage conditions: ambient/60% RH and 40° C./75% RH. Humidity control was obtained by using a saturated salt solution in a sealed container. […] A standard solution of volixibat DS prepared at nominal concentration in the analytical diluent served as the T=0 data point. The neat, loose drug substance powder was stored in the same vial configuration to serve as a control at each storage condition.
At the specified time points, approximately 50 mg of each formulation was sampled and diluted with analytical diluent in either 50 mL (for 1:1 formulations) or 100 mL (for […] and neat DS) to target nominal analytical concentration of 0.5 mg/mL volixibat. HPLC analysis was used based on the parameters described above under HPLC Parameters (Gradient Elution).

[2] = Formulation flow properties; format: physicochemical
physchem = settings: 25 °C, water

SMILES | Potency, % LC Volixibat ([1]; stored at 40° C./75% RH, T = 2-weeks) [% LC] | Potency, % LC Volixibat ([1]; stored at 40° C./75% RH, T = 4 weeks) [% LC] | Potency, % LC Volixibat ([1]; stored at 40° C./75% RH, T = 8 weeks) [% LC] | Potency, % LC Volixibat ([1]; stored at RT/60% RH, T = 2-weeks) [% LC] | Potency, % LC Volixibat ([1]; stored at RT/60% RH, T = 4 weeks) [% LC] | Potency, % LC Volixibat ([1]; stored at RT/60% RH, T = 9 weeks) [% LC] | Bulk Density [2] [g/mL] | Hausner Ratio [2] | Tapped Density [2] [g/mL] | solubility (physchem) [mg/mL]
CCCC[C@]1(CC)CS(=O)(=O)c2ccc(N(C)C)cc2[C@@H](c2cccc(NC(=O)N[C@@H]3O[C@H](COS(=O)(=O)[O-])[C@@H](O)[C@H](OCc4ccccc4)[C@H]3O)c2)[C@H]1O.[K+] [Volixibat DS] | 93.2 | 105.1 | 98.3 | 100.9 | 107.7 | 97.1 | 0.54 | 1.27 | 0.69 | 
CCCC[C@]1(CC)CS(=O)(=O)c2ccc(N(C)C)cc2[C@@H](c2cccc(NC(=O)N[C@@H]3O[C@H](COS(=O)(=O)O)[C@@H](O)[C@H](OCc4ccccc4)[C@H]3O)c2)[C@H]1O [volixibat, ((2R,3R,4S,5R,6R)-4-benzyloxy-6-{3-[3-((3S,4R,5R)-3-butyl-7-dimethylamino-3-ethyl-4-hydroxy-1,1-dioxo-2,3,4,5-tetrahydro-1H-benzo[b]thiepin-5-yl)-phenyl]-ureido}-3,5-dihydroxy-tetrahydro-pyran-2-ylmethyl) hydrogen sulfate)] |  |  |  |  |  |  |  |  |  | > 200
